Laboratory results taken from US9409893B2, “Heteroaryl derivatives and uses thereof” (Jacobus Pharmaceutical Company, Inc., priority 2012, dated 2016).
pIC50: −log10 of the molar value.

Assays:
P. falciparum strain D6 = assay: [3H]-hypoxanthine growth inhibition assay, P. falciparum D6; assay type: cell-based; conditions: Plasmodium falciparum; P. falciparum D6 (sensitive to chloroquine and pyrimethamine), [3H]-hypoxanthine incorporation; read-out: D6 IC50
Summary of the method: (§1)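 Parasites cultured in human O Rh+ RBCs in RPMI-1640-LPLF (low PABA and folic acid) with 10% human plasma, pH 6.9, 37° C, 5% O2/5% CO2/90% N2. Sorbitol-synchronised ring-stage cultures started at 1% parasitaemia; growth measured as [3H]-hypoxanthine incorporation in hypoxanthine-free medium. Compound stocks 1 mM in DMSO.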

P. falciparum strain W2 = assay: [3H]-hypoxanthine growth inhibition assay, P. falciparum W2; assay type: cell-based; conditions: Plasmodium falciparum; P. falciparum W2 (resistant to chloroquine and pyrimethamine), [3H]-hypoxanthine incorporation; read-out: W2 IC50
Summary of the method: as §1

hERG potassium channel = hERG potassium channel (Homo sapiens, UniProt Q12809); assay: Whole cell patch clamp of cloned hERG potassium channels expressed in HEK293 cells; assay type: cell-based
Description: For in vitro testing, the functional hERG assay using conventional patch clamp electrophysiology is considered the gold standard for assessment of drug interactions with the hERG potassium channel (Yao et al., Br. J. Pharmacol. 2008, 154, 1446-1456). In this assay, hERG channels are expressed in a human embryonic kidney (HEK293) cell line that lacks endogenous IKr.
The objective of this study was to examine the in vitro effects of test articles on the hERG (human ether-à-go-go-related gene) potassium channel current (a surrogate for IKr, the rapidly activating delayed rectifier cardiac potassium current).
All chemicals used in solution preparation were purchased from Sigma-Aldrich (St. Louis, Mo.) unless otherwise noted and were of ACS reagent grade purity or higher. Stock solutions of the test article and the positive control were prepared in dimethyl sulfoxide (DMSO) and stored frozen. Test article and positive control concentrations were prepared fresh daily by diluting stock solutions into a HEPES-buffered physiological saline (HB-PS) solution (composition in mM): NaCl, 137; KCl, 4.0; CaCl2, 1.8; MgCl2, 1; HEPES, 10; Glucose, 10; pH adjusted to 7.4 with NaOH (prepared weekly and refrigerated until use).
HEK/hERG • Organism: Homo sapiens • Designation: 293 • Tissue: Kidney; Transformed with adenovirus 5 DNA; Transfected with human-ether-a-go-go cDNA • Morphology: Epithelial • Age Stage Embryo • Source Strain: ATCC, Manassas, Va. • Source Substrain ChanTest Corporation, Cleveland, Ohio
HEK293 cells were stably transfected with hERG cDNA. Stable transfectants were selected by coexpression with the G418-resistance gene incorporated into the expression plasmid. Selection pressure was maintained by including G418 in the culture medium. Cells were cultured in Dulbecco's Modified Eagle Medium/Nutrient Mixture F-12 (D-MEM/F-12) supplemented with 10% fetal bovine serum, 100 U/mL penicillin G sodium, 100 μg/mL streptomycin sulfate and 500 μg/mL G418.
All experiments were performed at room temperature. Each cell acted as its own control.
Experiments were performed as outlined in the section entitled Experimental Procedures. Concentrations were selected to evaluate the concentration-response relationship of each test article based on the initial results or the solubility limits in vehicle. Each concentration was tested in at least three cells (n≧3).
Cells were transferred to the recording chamber and superfused with vehicle control solution. Micropipette solution for whole cell patch clamp recordings was composed of (mM): potassium aspartate, 130; MgCl2, 5; EGTA, 5; ATP, 4; HEPES, 10; pH adjusted to 7.2 with KOH. Pipette solution was prepared in batches, aliquoted, stored frozen, and a fresh aliquot was thawed each day. Patch pipettes were made from glass capillary tubing using a P-97 micropipette puller (Sutter Instruments, Novato, Calif.). A commercial patch clamp amplifier was used for whole cell recordings. Before digitization, current records were low-pass filtered at one-fifth of the sampling frequency.
Onset and steady state inhibition of hERG current was measured using a pulse pattern with fixed amplitudes (conditioning prepulse: +20 mV for 2 s; test pulse: −50 mV for 2 s) repeated at 10 s intervals, from a holding potential of −80 mV. Peak tail current was measured during the 2 s step to −50 mV.
Each test article at 10 μM was applied to at least 3 cells (n≧3).
One or more test article concentrations were applied sequentially (without washout between test substance concentrations) in ascending order, to each cell (n≧3). A steady state was maintained for at least 30 s before applying test article or positive control. Peak current was measured until a new steady state was achieved.
Steady state was defined by the limiting constant rate of change with time (linear time dependence). The steady state before and after test article application was used to calculate the percentage of current inhibited at each concentration. […]

Sequence of hERG potassium channel (Q12809 whole entry): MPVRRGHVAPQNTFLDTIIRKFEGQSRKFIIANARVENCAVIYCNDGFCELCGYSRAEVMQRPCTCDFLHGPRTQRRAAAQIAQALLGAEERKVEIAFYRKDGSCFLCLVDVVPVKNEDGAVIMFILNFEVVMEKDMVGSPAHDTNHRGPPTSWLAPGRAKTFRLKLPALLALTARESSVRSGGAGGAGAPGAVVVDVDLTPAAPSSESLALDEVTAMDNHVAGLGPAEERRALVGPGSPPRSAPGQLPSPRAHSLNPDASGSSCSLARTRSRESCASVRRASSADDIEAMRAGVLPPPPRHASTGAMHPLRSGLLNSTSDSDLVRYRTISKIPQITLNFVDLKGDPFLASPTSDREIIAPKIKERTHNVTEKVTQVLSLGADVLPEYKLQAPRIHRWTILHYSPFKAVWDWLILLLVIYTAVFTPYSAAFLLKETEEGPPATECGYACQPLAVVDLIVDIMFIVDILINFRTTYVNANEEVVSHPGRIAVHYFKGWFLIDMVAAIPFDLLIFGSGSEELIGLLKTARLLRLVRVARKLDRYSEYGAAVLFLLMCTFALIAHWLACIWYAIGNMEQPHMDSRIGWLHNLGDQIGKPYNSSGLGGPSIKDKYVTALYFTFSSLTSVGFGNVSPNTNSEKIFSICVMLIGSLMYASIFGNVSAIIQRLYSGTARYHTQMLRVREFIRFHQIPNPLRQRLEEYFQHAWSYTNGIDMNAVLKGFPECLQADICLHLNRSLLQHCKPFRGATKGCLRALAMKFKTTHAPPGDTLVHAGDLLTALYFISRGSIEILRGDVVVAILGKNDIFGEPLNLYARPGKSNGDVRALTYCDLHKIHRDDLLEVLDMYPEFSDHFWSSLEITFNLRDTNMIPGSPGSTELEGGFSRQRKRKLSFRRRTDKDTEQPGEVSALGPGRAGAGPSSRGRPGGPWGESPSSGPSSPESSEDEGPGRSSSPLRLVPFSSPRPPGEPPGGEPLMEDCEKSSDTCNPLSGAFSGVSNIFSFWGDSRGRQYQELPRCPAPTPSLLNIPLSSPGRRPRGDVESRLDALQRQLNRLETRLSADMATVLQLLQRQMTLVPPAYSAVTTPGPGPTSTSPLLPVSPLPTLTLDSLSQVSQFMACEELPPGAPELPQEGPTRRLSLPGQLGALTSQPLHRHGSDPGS

pIC50 (P. falciparum strain D6) | pIC50 (P. falciparum strain W2) | melting point | SMILES | pIC50 (hERG potassium channel; HEK293/hERG, patch clamp, read-out: IC50 for the inhibitory effect on hERG potassium current) | Hill coefficient of hERG inhibition (hERG potassium channel; fit of concentration-response data) | inhibition at 0.3 µM (hERG potassium channel; human, HEK293 cells stably expressing hERG, pH 7.4, 0.3 μM, HEK293/hERG, room temperature, read-out: Mean percentage of hERG current inhibited) | inhibition at 1 µM (hERG potassium channel; human, HEK293 cells stably expressing hERG, pH 7.4, 1 μM, HEK293/hERG, room temperature, read-out: Mean percentage of hERG current inhibited) | inhibition at 3 µM (hERG potassium channel; human, HEK293 cells stably expressing hERG, pH 7.4, 3 μM, HEK293/hERG, room temperature, read-out: Mean percentage of hERG current inhibited) | inhibition at 10 µM (hERG potassium channel; human, HEK293 cells stably expressing hERG, pH 7.4, 10 μM, HEK293/hERG, room temperature, read-out: Mean percentage of hERG current inhibited)
6.80 | 7.00 | 229 to 232 °C | CC(C)(C)NCc1cc(C(C)(C)C)cc(-c2ccc(S(C)(=O)=O)nc2)c1O.Cl [Example 43, 4-(tert-Butyl)-2-((tert-butylamino)methyl)-6-(6-(methylsulfonyl)pyridin-3-yl)phenol hydrochloride] |  |  |  |  |  | 
 |  |  | CC(C)(C)NCc1cc(C(C)(C)C)cc(-c2ccc(Cl)cc2)c1O [WR-194,965, 4-(tert-butyl)-2-(tert-butylaminomethyl)-6-(4-chlorophenyl)phenol, reference compound] | 5.96 | 1.4 | 12.8% | 47.5% | 80.3% | 97.2%
